Experimental data reported in US20230321288A1, “RIBOFLAVIN PHOTOCHEMICAL TREATMENT (RPT)-BASED INACTIVATION METHOD OF PATHOGENS IN BIOLOGICAL LIQUID SAMPLE” (INSTITUTE OF BLOOD TRANSFUSION CHINESE ACADEMY OF MEDICAL …, priority 2020, published 2023).

Columns and labels:
Staphylococcus aureus = test: RPT-based inactivation of Staphylococcus aureus in apheresis platelets, growth detected by Reed-Muench method (Example 2); assay type: cell-based; details: 50 μM riboflavin, 30 min
Procedure: (§1) In this example, the apheresis platelets containing 50 μM of riboflavin were separately irradiated with LED lamp beads with a wavelength of 395 nm±5 nm and fluorescent tubes with a wavelength of 309 nm to 313 nm for 30 min at irradiation intensities of 1 W (395 nm f 5 nm) and 9 W (309 nm to 313 nm), respectively. The growth of Staphylococcus aureus in the blood products was then detected by a Reed-Muench method.

E. coli = test: RPT-based inactivation of E. coli in plasma, growth detected by Reed-Muench method (Example 1); assay type: cell-based, Escherichia coli; details: 50 μM riboflavin, 15 min, 1 W
Procedure: In this example, the plasma of healthy blood donors containing 50 μM of riboflavin was irradiated with LED lamp beads in a series of wavelength ranges for 15 min at an irradiation intensity of 1 W. The growth of E. coli in the blood products was then detected by a Reed-Muench method.

apheresis platelets = test: Quality of platelet preservation after RPT (Example 2, Table 1); assay type: cell-based; details: for K^+ / MPV / Na^+ / PH: platelets, 50 μM riboflavin, 30 min
Procedure: as §1
The properties and component contents of the platelet samples in the three groups of experiments were compared, and the results were as follows: […]

Cc1cc2nc3c(=O)[nH]c(=O)nc-3n(C[C@H](O)[C@H](O)[C@H](O)CO)c2cc1C [riboflavin]
inactivation of S. aureus (Staphylococcus aureus; 309 nm to 313 nm fluorescent tubes, 9 W): could inactivate the S. aureus
inactivation effect on S. aureus compared with 309 nm to 313 nm fluorescent tubes (Staphylococcus aureus; 395 nm±5 nm LED): better
inactivation of S. aureus (Staphylococcus aureus; 395 nm±5 nm LED, 1 W): could inactivate the S. aureus
pathogen inactivation effect on E. coli (E. coli; LED 365 nm ± 5 nm): desirable pathogen inactivation effect
pathogen inactivation effect on E. coli (E. coli; LED 395 nm±5 nm): desirable pathogen inactivation effect
damage to the platelet samples (apheresis platelets): significantly less damage
K^+ (apheresis platelets; 309 nm to 313 nm, 9 W): 3 mmol/L
MPV (apheresis platelets; 309 nm to 313 nm, 9 W): 12.1
Na^+ (apheresis platelets; 309 nm to 313 nm, 9 W): 151 mmol/L
PH (apheresis platelets; 309 nm to 313 nm, 9 W): 7.26
K^+ (apheresis platelets; 395 nm ± 5 nm, 1 W): 2.7 ± 0^ mmol/L
MPV (apheresis platelets; 395 nm ± 5 nm, 1 W): 9.5 ± 0^
Na^+ (apheresis platelets; 395 nm ± 5 nm, 1 W): 153.6 ± 0.49 mmol/L
PH (apheresis platelets; 395 nm ± 5 nm, 1 W): 7.45 ± 0.01
